Measurements reported in ChEMBL document CHEMBL1201862, “PubChem BioAssay data set” (2004).
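These data come from cells grown in 96-well plates and exposed to compound for 48 hours at five concentrations. GI50 is the concentration that inhibits growth by half.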 Active and inactive are the calls of the source. Rule as the data show it: active = GI50 up to about 1.1 µM and inactive = higher.

Columns and labels:
Assay in all cases: NCI anticancer screen, dose series, 48 h
[1] = system: SW-620
[2] = system: NCI-H226
[3] = system: RPMI-8226
[4] = system: NCI/ADR-RES
[5] = system: MDA-MB-231
[6] = system: SF-295
[7] = system: OVCAR-4
[8] = system: HCT-116
[9] = system: HL-60
[10] = system: SR
[11] = system: PC-3
[12] = system: SK-MEL-5
[13] = system: DU-145
[14] = system: UACC-62
[15] = system: HCC 2998
[16] = system: OVCAR-8
[17] = system: SNB-75
[18] = system: SN12C
[19] = system: 786-0
[20] = system: NCI-H522

Measured: GI50

COC(=O)C1=C(O)C(C(=O)OC)[C@]2(O)[C@H](C(=O)OC)[C@H]1C[C@@H](c1ccc(O)cc1)[C@H]2C(=O)OC (some centres not stated)
inactive: [1] 50.7 µM | [2] 44.4 µM | [3] 27.9 µM | [4] 30.1 µM | [5] 23.1 µM | [6] 22 µM | [7] 36.4 µM | [8] 27.7 µM | [9] 27.2 µM | [10] 23.2 µM | [11] 19.9 µM | [12] 37.3 µM | [13] 23.1 µM | [14] 31.3 µM | [15] 19.9 µM | [16] 33.4 µM | [17] 20 µM | [18] 17.7 µM | [19] 39 µM

N#CC12CNCC1CN=N2 (configuration not stated)
inactive: [1] > 100 µM | [2] > 100 µM | [4] > 100 µM | [5] > 100 µM | [6] > 100 µM | [7] > 100 µM | [8] > 100 µM | [9] > 100 µM | [10] > 100 µM | [11] > 100 µM | [12] > 100 µM | [13] > 100 µM | [14] > 100 µM | [15] > 100 µM | [16] > 100 µM | [17] > 100 µM | [18] > 100 µM | [19] > 100 µM | [20] > 100 µM

O=C1OC2C(O)C(=O)OC2C1O (configuration not stated)
inactive: [1] > 100 µM | [2] > 100 µM | [4] > 100 µM | [5] > 100 µM | [6] > 100 µM | [7] > 100 µM | [8] > 100 µM | [9] > 100 µM | [10] > 100 µM | [11] > 100 µM | [12] > 100 µM | [13] > 100 µM | [14] > 100 µM | [15] > 100 µM | [16] > 100 µM | [17] 95.3 µM | [18] > 100 µM | [19] > 100 µM | [20] > 100 µM

O=C1CC[C@@]2(O)[C@H]3Cc4ccc(-c5ccccc5)c5c4[C@@]2(CCN3CC2CC2)[C@H]1O5
inactive: [1] 10.3 µM | [2] 20.3 µM | [3] 15.4 µM | [4] 16.3 µM | [5] 15.2 µM | [6] 19.2 µM | [7] 35.9 µM | [8] 16.9 µM | [9] 17.9 µM | [10] 25.9 µM | [11] 19 µM | [12] 14.2 µM | [13] 23.3 µM | [14] 12.2 µM | [15] 18.4 µM | [16] 16.1 µM | [18] 24.2 µM | [19] 15.8 µM | [20] 14.7 µM

Cc1ccc(S(=O)(=O)NC(=O)Nc2nnc(S(N)(=O)=O)s2)cc1
inactive: [1] > 100 µM | [2] > 100 µM | [3] > 100 µM | [4] > 100 µM | [5] > 100 µM | [6] > 100 µM | [7] > 100 µM | [8] > 100 µM | [9] > 100 µM | [10] > 100 µM | [11] > 100 µM | [12] > 100 µM | [13] > 100 µM | [14] > 100 µM | [15] > 100 µM | [16] > 100 µM | [17] > 100 µM | [19] > 100 µM

COc1cc(C(c2cccc3ccccc23)N2C(=O)CCC2C(=O)O)cc(OC)c1OC (configuration not stated)
inactive: [1] > 100 µM | [2] > 100 µM | [3] > 100 µM | [4] > 100 µM | [5] > 100 µM | [6] > 100 µM | [7] > 100 µM | [8] > 100 µM | [9] > 100 µM | [10] > 100 µM | [11] > 100 µM | [12] > 100 µM | [13] > 100 µM | [14] > 100 µM | [16] > 100 µM | [17] > 100 µM | [18] > 100 µM | [19] > 100 µM | [20] > 100 µM

COC(=O)C1C(O)C(C)C(=O)C(C)/C=C\C=C(C)C(=O)Nc2c(C)c(OC(C)=O)c3c(c2O)C(=O)C(C)=C2OCOC(=C23)C(C)=CC(C)(O)C(O)C(C)C1O (configuration not stated)
inactive: [1] 33.8 µM | [2] 46.7 µM | [3] > 100 µM | [4] 46.9 µM | [5] > 100 µM | [6] 62.2 µM | [8] 24.9 µM | [9] 18.6 µM | [10] 30.3 µM | [11] 25.1 µM | [12] 14.5 µM | [13] 15 µM | [14] 21.7 µM | [15] 21 µM | [16] 33.7 µM | [17] 49 µM | [18] 31.4 µM | [19] 54.6 µM | [20] 43.5 µM
